Reference: PMC9124818 (Pharmacology Research & Perspectives, 2022)
Like-named read-outs stand apart in the source and are kept apart here.

Key:
OATP1B3 = target: T1, OATP1B3 (Homo sapiens, UniProt Q9NPD5); assay: Transporter inhibition, uptake of [3H]-estradiol-17β-glucuronide in HEK293 cells; type: in vitro ADME
T1 construct: host or cells: HEK293
T1 sequence (Q9NPD5 1-702): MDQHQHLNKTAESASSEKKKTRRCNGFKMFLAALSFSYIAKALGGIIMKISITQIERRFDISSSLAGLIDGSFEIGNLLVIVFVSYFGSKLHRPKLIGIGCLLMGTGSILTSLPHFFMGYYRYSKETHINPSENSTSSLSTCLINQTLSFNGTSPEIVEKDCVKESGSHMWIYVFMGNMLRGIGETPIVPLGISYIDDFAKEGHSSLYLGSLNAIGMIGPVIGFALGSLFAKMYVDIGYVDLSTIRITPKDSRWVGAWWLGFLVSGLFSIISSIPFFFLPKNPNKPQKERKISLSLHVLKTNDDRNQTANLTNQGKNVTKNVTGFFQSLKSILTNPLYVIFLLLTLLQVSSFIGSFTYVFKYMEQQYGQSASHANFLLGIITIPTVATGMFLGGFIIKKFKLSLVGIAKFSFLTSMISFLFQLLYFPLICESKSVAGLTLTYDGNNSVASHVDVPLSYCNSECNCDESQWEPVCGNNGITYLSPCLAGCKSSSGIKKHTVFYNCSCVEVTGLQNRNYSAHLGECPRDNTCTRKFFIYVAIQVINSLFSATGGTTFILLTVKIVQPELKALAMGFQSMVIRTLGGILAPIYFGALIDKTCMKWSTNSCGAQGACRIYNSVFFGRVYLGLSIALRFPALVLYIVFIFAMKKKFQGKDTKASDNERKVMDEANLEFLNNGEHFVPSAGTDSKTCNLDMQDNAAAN
Description: (§1) The test compound (FFA or nFFA) or the positive control substrate ([…], respectively) was added to the donor chamber. […] Cells were then washed, lysed with scintillation cocktail, and analyzed for the probe substrate with a MicroBeta scintillation counter (PerkinElmer, Hopkinton, MA). Transcellular transporter assay conditions are described in Supplemental Table 1. Calculation of IC50 values was based on bidirectional permeability of probe substrate with and without the inhibitor in MDCKII cells expressing BCRP and in Caco‐2 cells expressing P‐gp, and transporter‐dependent uptake of probe substrate in HEK293 cells expressing all other transporters (Supplemental Table 1).
(§2) The transporter-specific uptake of the probe substrate in cells was determined by subtracting the accumulation in the control cells from the accumulation in the transporter-expressing cells.

OATP1B1 = target: T2, OATP1B1 (Homo sapiens, UniProt Q9Y6L6); assay: as above; type: in vitro ADME
T2 construct: host or cells: HEK293
T2 sequence (Q9Y6L6 1-691): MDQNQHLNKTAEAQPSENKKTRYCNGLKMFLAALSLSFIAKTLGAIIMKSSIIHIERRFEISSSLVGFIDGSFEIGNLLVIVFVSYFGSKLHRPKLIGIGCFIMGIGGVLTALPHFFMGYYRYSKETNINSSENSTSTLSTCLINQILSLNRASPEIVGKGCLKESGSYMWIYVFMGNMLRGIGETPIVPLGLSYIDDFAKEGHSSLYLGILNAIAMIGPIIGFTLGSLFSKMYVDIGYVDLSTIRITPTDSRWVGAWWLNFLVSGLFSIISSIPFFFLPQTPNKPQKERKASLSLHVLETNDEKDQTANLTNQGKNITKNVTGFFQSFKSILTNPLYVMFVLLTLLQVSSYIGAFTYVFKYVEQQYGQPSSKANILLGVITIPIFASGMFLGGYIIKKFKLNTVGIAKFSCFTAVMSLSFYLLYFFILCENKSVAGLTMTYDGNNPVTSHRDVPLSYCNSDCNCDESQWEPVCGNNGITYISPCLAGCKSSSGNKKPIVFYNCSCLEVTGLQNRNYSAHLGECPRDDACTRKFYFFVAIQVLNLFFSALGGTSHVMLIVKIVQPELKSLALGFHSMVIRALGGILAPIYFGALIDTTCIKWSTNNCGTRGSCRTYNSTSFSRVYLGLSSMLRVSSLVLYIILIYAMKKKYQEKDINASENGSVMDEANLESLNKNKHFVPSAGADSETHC
Description: as §1, §2

CYP3A4 mRNA = assay: in vitro; conditions: for Fold‐change method: Fold change: highest dose tested (40 µM fenfluramine, 50 µM norfenfluramine); for Fold‐change method: % of control: percent of positive control induction of mRNA; for Basic kinetic model: Emax (fold) / EC50: ± standard error; for Basic kinetic model: Emax (fold): fit of fold‐change −1 values
Description: Cells were then harvested to isolate RNA, which was analyzed by quantitative reverse transcription‐polymerase chain reaction (qRT‐PCR) for induction of CYP1A2, CYP2B6, and CYP3A4 mRNA levels. Total RNA was phase extracted with TRIzol followed by purification with an RNeasy Mini Kit (Qiagen Inc., Germantown, MD). Quantitative PCR was performed in triplicate with a 7900HT Fast Real Time PCR System, an Applied Biosystems Universal Master Mix, and TaqMan® Gene Expression Assays. The quantity of target cDNA relative to control cDNA (GAPDH) was determined by the ΔΔCT method (Applied Biosystems User Bulletin #2). Relative quantitation measures the change in mRNA expression in a test sample relative to that in the control sample (i.e., DMSO). This method assumes that the efficiency of target amplification and the efficiency of endogenous control amplification are approximately equal.
mRNA assessment was conducted using a quantitative reverse transcription-polymerase chain reaction (qRT-PCR) according to the Applied Biosystems protocol. Each PCR was performed in triplicate. A Primer Mix was prepared for each Gene Expression assay. A typical Primer Mix contained TaqMan Fast Advanced Master Mix (1X), Gene Expression Assay (1X, 900 nM forward and reverse primers) and ribonuclease (RNase)-free water. The Reaction Mix was prepared by adding the Primer Mix to cDNA. A percentage of samples (no less than 10%) included NACs. […] The relative quantity of the target cDNA compared with that of the control cDNA (GAPDH) was determined by the ΔΔCt method (Applied Biosystems User Bulletin #2). Relative quantitation measures the change in mRNA expression in a test sample relative to that in a control sample (eg, dimethyl sulfoxide [DMSO]). This method assumes that the efficiency of the target amplification and the efficiency of the endogenous control amplification are approximately equal.
This software analyzes relative gene expression using the comparative Ct method (ΔΔCt), which relates the PCR signal of the target transcript to the PCR signal of the target in an untreated control. Both the treated sample and the untreated control signals are normalized to the endogenous control (GAPDH), for which expression is not affected by treatment and expression is constant throughout the tissue being tested.
The level of mRNA expression relative to the positive control was calculated as follows: […]

CYP2C19 = CYP2C19 (Homo sapiens, UniProt P33261); assay: Direct CYP450 inhibition in human liver microsomes (S-mephenytoin 4'-hydroxylation); conditions: for Inhibition (%): FFA up to 60 µM, nFFA up to 100 µM; for Basic model: R1: R1 = 1 + (Imax,u/Ki,u)
Description: A mixed‐gender pool of 200 individual human liver microsomal samples was used.
This LIMS utilizes the Levenberg-Marquardt algorithm to perform nonlinear regression fitting of the data to the following 4-parameter sigmoidal-logistic IC50 equation:
As percent of control values are utilized, the Min is set to 0 and the Max is set to 100 (or other values, as appropriate). […] Therefore, when an IC50 value falls outside the concentration range studied, the IC50 values are reported to be greater than the highest concentrations of test article evaluated.

[1] = HEK293, probe [3H]-estradiol-17β-glucuronide 50 nM, read-out: IC50
[2] = direct inhibition, substrate S-mephenytoin

Sequence of CYP2C19 (P33261 whole entry): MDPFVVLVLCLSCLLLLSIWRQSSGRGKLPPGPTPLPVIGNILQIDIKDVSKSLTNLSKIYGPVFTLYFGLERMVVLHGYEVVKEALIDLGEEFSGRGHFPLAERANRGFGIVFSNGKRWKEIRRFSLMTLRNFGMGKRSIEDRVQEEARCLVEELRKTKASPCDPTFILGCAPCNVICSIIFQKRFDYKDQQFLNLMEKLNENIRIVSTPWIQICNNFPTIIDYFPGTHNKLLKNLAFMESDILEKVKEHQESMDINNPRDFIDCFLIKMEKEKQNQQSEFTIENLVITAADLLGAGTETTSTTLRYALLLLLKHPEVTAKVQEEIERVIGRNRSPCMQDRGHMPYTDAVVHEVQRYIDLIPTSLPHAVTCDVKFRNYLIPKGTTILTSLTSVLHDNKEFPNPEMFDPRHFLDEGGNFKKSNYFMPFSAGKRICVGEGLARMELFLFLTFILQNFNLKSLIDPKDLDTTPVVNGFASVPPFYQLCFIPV

SMILES: CC(N)Cc1cccc(C(F)(F)F)c1.Cl (stereo not shown) [nFFA, [1‐(3‐trifluoromethyl)phenyl]propan‐2‐amine hydrochloride]
- IC50 (OATP1B3; [1]): > 50 µM
- IC50 (OATP1B1; [1]): > 50 µM
- Basic kinetic model: Potential to induce (CYP3A4 mRNA; hepatocytes HC7‐8): Yes
- Basic kinetic model: R3 (CYP3A4 mRNA; hepatocytes HC7‐8): 0.79
- Fold‐change method: Potential to induce (CYP3A4 mRNA; hepatocytes HC7‐8): Yes
- Static mechanistic model: Potential to induce (CYP3A4 mRNA; hepatocytes HC7‐8): No (AUCR <0.8 to denote induction)
- Fold‐change method: Fold change (CYP3A4 mRNA; hepatocytes HC7‐8): 4.91 fold
- Fold‐change method: % of control (CYP3A4 mRNA; hepatocytes HC7‐8): 3.68%
- Basic kinetic model: Emax (fold) (CYP3A4 mRNA; hepatocytes HC7‐8): 3.92 ± 0.048 fold
- Basic kinetic model: Potential to induce (CYP3A4 mRNA; hepatocytes HC10‐8): No
- Basic kinetic model: R3 (CYP3A4 mRNA; hepatocytes HC10‐8): 0.86
- Fold‐change method: Potential to induce (CYP3A4 mRNA; hepatocytes HC10‐8): Yes
- Static mechanistic model: Potential to induce (CYP3A4 mRNA; hepatocytes HC10‐8): No (AUCR <0.8 to denote induction)
- Fold‐change method: Fold change (CYP3A4 mRNA; hepatocytes HC10‐8): 5.75 fold
- Fold‐change method: % of control (CYP3A4 mRNA; hepatocytes HC10‐8): 15.30%
- Basic kinetic model: Emax (fold) (CYP3A4 mRNA; hepatocytes HC10‐8): 6.95 ± 1.0 fold
- Basic kinetic model: Potential to induce (CYP3A4 mRNA; hepatocytes HC10‐10): No
- Basic kinetic model: R3 (CYP3A4 mRNA; hepatocytes HC10‐10): 0.84
- Fold‐change method: Potential to induce (CYP3A4 mRNA; hepatocytes HC10‐10): Yes
- Static mechanistic model: Potential to induce (CYP3A4 mRNA; hepatocytes HC10‐10): No (AUCR <0.8 to denote induction)
- Fold‐change method: Fold change (CYP3A4 mRNA; hepatocytes HC10‐10): 4.57 fold
- Fold‐change method: % of control (CYP3A4 mRNA; hepatocytes HC10‐10): 4.85%
- Basic kinetic model: Emax (fold) (CYP3A4 mRNA; hepatocytes HC10‐10): 3.61 ± 0.40 fold
- EC50 (CYP3A4 mRNA; read-out: Basic kinetic model: EC50, hepatocytes HC7‐8): 12.9 ± 0.38 µM
- EC50 (CYP3A4 mRNA; read-out: Basic kinetic model: EC50, hepatocytes HC10‐8): 37.8 ± 5.6 µM
- EC50 (CYP3A4 mRNA; read-out: Basic kinetic model: EC50, hepatocytes HC10‐10): 17.1 ± 3.9 µM
- IC50 (CYP2C19; direct inhibition, human liver microsomes, substrate S-mephenytoin): > 100 µM
- Inhibition (%) (CYP2C19; [2]): 2.9%
- Basic model: Potential for clinical inhibition (CYP2C19; substrate S-mephenytoin): No (Potential to inhibit if R1 ≥ 1.02)
- Static mechanistic model: Potential for clinical inhibition (CYP2C19; substrate S-mephenytoin): No (Potential to inhibit if AUCR ≥ 1.25)
- Basic model: R1 (CYP2C19; substrate S-mephenytoin): 1.00

SMILES: CCNC(C)Cc1cccc(C(F)(F)F)c1 (racemic) [FFA, (RS)‐ethyl(α‐methyl‐3‐trifluoromethylphenethyl)amine, reference compound]
- IC50 (OATP1B3): > 300 µM
- IC50 (OATP1B1): > 300 µM
- Static mechanistic model: Potential to induce (CYP3A4 mRNA): No (key: Yes: AUCR <0.8 to denote induction; No: AUCR <0.8 to denote induction)
- EC50 (CYP3A4 mRNA; human, Basic kinetic model: EC50, hepatocytes HC7‐8): 8.53 ± 4.3 µM
- EC50 (CYP3A4 mRNA; human, Basic kinetic model: EC50, hepatocytes HC10‐8): 20.4 ± 1.9 µM
- EC50 (CYP3A4 mRNA; human, Basic kinetic model: EC50, hepatocytes HC10‐10): 9.05 ± 3.6 µM
- CYP3A4 induction (abstract) (CYP3A4 mRNA; human, hepatocytes): 1.9-3.0 fold
- IC50 (CYP2C19): > 60 µM
- Inhibition (%) (CYP2C19; [2]): 14%
- Basic model: Potential for clinical inhibition (CYP2C19; substrate S-mephenytoin): No (Potential to inhibit if R1 ≥ 1.02)
- Static mechanistic model: Potential for clinical inhibition (CYP2C19; substrate S-mephenytoin): No (Potential to inhibit if AUCR ≥ 1.25)
- Basic model: R1 (CYP2C19; substrate S-mephenytoin): 1.01
